From patent US11072601B2, “μ-opioid receptor agonist and preparation method therefor and use thereof in field of medicine” (SHANGHAI SYNERGY PHARMACEUTICAL SCIENCES CO., LTD., priority 2017, dated 2021)

Test system: SD rats
Experiment: Respiratory depression in rats, arterial blood gas PCO2
Format: in vivo
Conditions: for PCO2, 5 min before administration: arterial blood; for PCO2, 5 min after administration / PCO2, 30 min after administration / PCO2, 60 min after administration / PCO2, 120 min after administration: intravenous single dose 0.3 mg/kg (morphine 24 mg/kg)

SMILES	PCO2, 5 min before administration	PCO2, 5 min after administration	PCO2, 30 min after administration	PCO2, 60 min after administration	PCO2, 120 min after administration
FC(F)Oc1ccccc1CNCCC1(c2ccccn2)CCOC2(CCCC2)C1 (stereo not shown) [Example H16, (2-difluoromethoxybenzyl)-[2-(9-(pyridin-2-yl)-6-oxaspiro[4.5]decan-9-yl)ethyl]amine]	35.27 ± 0.43 mmHg	30.48 ± 1.24 mmHg	30.03 ± 0.62 mmHg	31.27 ± 1.2 mmHg	31.83 ± 1.40 mmHg
FC(F)(F)Oc1ccc(Cl)cc1CNCCC1(c2ccccn2)CCOC2(CCCC2)C1 (stereo not shown) [Example H17, (5-chloro-2-trifluoromethoxybenzyl)-[2-(9-(pyridin-2-yl)-6-oxaspiro[4.5]decan-9-yl)ethyl]amine]	34.77 ± 1.88 mmHg	35.48 ± 1.74 mmHg	34.03 ± 1.69 mmHg	34.27 ± 1.4 mmHg	34.83 ± 1.15 mmHg
FC(F)Oc1ccsc1CNCCC1(c2ccccn2)CCOC2(CCCC2)C1 (stereo not shown) [Example H18, ((3-difluoromethoxythiophen-2-yl)methyl)-[2-(9-(pyridin-2-yl)-6-oxaspiro[4.5]decan-9-yl)ethyl]a mine]	33.77 ± 0.88 mmHg	35.48 ± 1.54 mmHg	34.03 ± 0.69 mmHg	36.27 ± 1.4 mmHg	34.83 ± 1.45 mmHg
Fc1ccc(C2(CCNCc3ccccc3OC(F)(F)F)CCOC3(CCCC3)C2)nc1 (stereo not shown) [Example H21, {2-[9-(5-fluoro-pyridin-2-yl)-6-oxa-spiro[4.5]decan-9-yl]-ethyl}-(2-(trifluoromethoxy)-phenmethyl)-amine]	36.77 ± 1.78 mmHg	35.48 ± 1.72 mmHg	36.03 ± 1.42 mmHg	37.27 ± 1.94 mmHg	36.83 ± 1.65 mmHg
CNc1ccsc1C(=O)NCCC1(c2ccccn2)CCOC2(CCCC2)C1 (stereo not shown) [Example H24, 3-methylamino-thiophene-2-carboxylic acid [2-(9-pyridin-2-yl-6-oxa-spiro[4.5]decan-9-yl)-ethyl]-amide]	36.77 ± 1.94 mmHg	36.48 ± 1.80 mmHg	33.03 ± 0.72 mmHg	36.27 ± 1.57 mmHg	36.83 ± 1.73 mmHg
